Read-outs that look alike come from different tables or passages of the source.
Legend:
[1] = test system: IL-6 production in LPS-stimulated murine spleenocytes; assay: Inhibition of IL-6 production in LPS-stimulated murine spleenocytes in vitro; format: cell-based; conditions: Mus musculus, 50 μM concentration of the compound, read-out: inhibition of interleukin-6 (IL-6) production
Description: Test and reference substances used in an in vitro assays were dissolved in dimethyl sulfoxide (DMSO) (Sigma Chemical Co., USA) at a concentration of 50 mM and were further diluted to test concentrations in appropriate cell culture medium.
After cervical dislocation, mouse spleens were removed using sterile dissection tools. Spleens were transferred to a pre-wetted cell strainer in a 50 mL sterile conical tube and cell suspension was made by gentle puddle. Cells were centrifuged (20 min, 300×g) and resuspended in 2 mL of sterile phosphate buffered saline (PBS) (Sigma Chemical Co., USA). Red blood cells were lysed by addition of 3 mL of sterile water and occasionally gentle shaking for 1 minute. Afterwards, the tube was filled to 40 mL with DMEM medium and centrifuged (20 min, 300×g). Cells were resuspended in DMEM supplemented with 1% FBS and seeded in a 24-well plate, 1×10^6 cells per mL medium.
Final concentrations of 50 μM, 25 μM, 12.5 μM, 6.3 μM and 3.1 μM of test compounds were prepared by diluting a 50 mM DMSO stock in Dulbecco's modified Eagle medium (DMEM) (Gibco, USA) supplemented with 1% heat inactivated fetal bovine serum (FBS) (BioWest, Ringmer, United Kingdom).
Cells were pre-incubated with the test compounds for 3 h at 37° C., in an atmosphere of 5% CO2 and 90% humidity. Afterwards, cells were stimulated with 1 μg/mL lipopolysaccharide (LPS, E. coli 0111:B4, Sigma Chemical Co., USA) and incubated overnight. Concentration of IL-6 was determined in cell supernatants by sandwich ELISA using capture and detection antibodies (R&D Systems, USA) according to the manufacturer's recommendations.
Inhibition (as percentage) was calculated using the following formula:
% inhibition=[1−(concentration of IL-6 in sample−concentration of IL-6 in negative control)/(concentration of IL-6 in positive control−concentration of IL-6 in negative control)]×100.
The positive control refers to LPS-stimulated samples that were not preincubated with the compounds.
The negative control refers to unstimulated and untreated samples.

male BALB/cJ mice = assay: Lung neutrophilia induced by bacterial lipopolysaccharide in male BALB/cJ mice - Method B; format: in vivo; conditions: Mus musculus, ip, 24 h, single dose of 100 mg/kg i.p., vs LPS challenged untreated animals
Description: For intraperitoneal administration (i.p.) compounds were dissolved in a final concentration of 10 mg/mL. The required amount of compound was first dissolved in dimethylsulfoxide (DMSO, Sigma) and then diluted with 0.5% (w/v) methyl-cellulose so that the final DMSO concentration was 5% (v/v). The obtained solution was applied in a dose volume of 0.1 mL per 10 g of animal. Therefore, the compound dose was 100 mg/kg.
Male BALB/cJ mice (Charles River, Germany), with an average weight of ˜25 g were randomly grouped (n=8 in testing group, 10 in positive control and 6-8 in negative control). Mice received intraperitoneally (i.p.) a single dose of 100 mg/kg of test compound. Two hours after administration, 0.4 μg of LPS (from Escherichia coli serotype 0111:B4, Sigma), dissolved in sterile saline (0.9% NaCl) in a volume of 50 μL, was intranasally administered to all experimental groups except the negative control group, which received the same volume of vehicle (saline). Animals were sacrificed approximately 24 hours after application of LPS in order to obtain bronchoalveolar lavage fluid (BALF), which was used to determine absolute number of cells and the percentage of neutrophils. […] In some experiments neutrophil levels in BALF were assessed by measurement of concentration of a neutrophil-specific enzyme myeloperoxidase (MPO). Results are then expressed as percentage of decrease in myeloperoxidase (MPO) concentration measured in BALF lysates of treated animals compared to positive control (Mouse MPO ELISA Kit, Hycult biotechnology, Nederlands). For this purpose, BALF was sonicated after addition of 1.5% Triton-X-100 (Pharmacia Biotech) in Milli-Q water and frozen at −80° C. until analysed.

Male BALB/c mice = assay: Cigarette-smoke-induced lung neutrophilia; format: in vivo; conditions: oral gavage; for reduction of neutrophil number in BALF, statistical significance: p<0.05 vs vehicle control
Description: Male BALB/c mice (weighing 21-24 g, were randomly grouped, 5 animals per group) were pre-treated with compound (100, 30, 10, 3 and 1 mg/kg body weight) or vehicle (5% DMSO/95% methyl-cellulose 0.5% w/v, positive control) by oral gavage in a volume of 10 mL/kg. 2 hours after compound administration, 10 mice were placed into a plexiglass box (Braintree Scientific, size 10″×4″×4″) with an input port for aerosol and another port for exhaust. Cigarette smoke was introduced through the aerosol port via a peristaltic pump (Masterflex L/S, Digital Economy Drive) set at 40 ml/min. Breathing air was also introduced through the same port via an elbow in the tubing at a rate of 0.4 L/min. With these settings, smoke concentration delivered to the box was approximately 10%. 3 cigarettes (research type 4A1, University of Kentucky Tobacco Institute) were given back-to-back with a 1 min period between each one, when the mice breathed fresh air for one minute. 2 to 3 hours after the first group of cigarettes, 2 additional cigarettes were given, again allowing 1 min between each cigarette. After the last cigarette, the mice were returned to their normal housing. This procedure was carried out for 2 days.
On the 3rd day, mice were euthanized with 0.1 ml Fatal Plus i.p., then bronchoalveolar lavaged with 5×0.7 ml Dulbecco's phosphate-buffered saline (dPBS, in-house Media Prep lab) through a tracheal tube. BALF was spun at 3000 rpm for 10 min, the supernatant discarded, and the cells resuspended with 1 ml dPBS. Slides were made on a cytospin (100 μl fluid, spun at 300 rpm for 5 min), then stained with Diff Quick for differential counts (minimum of 200 cells counted). Total cell counts were performed with a hemocytometer after a dilution with Tuerks solution.
Results are expressed as percentage decrease in number of neutrophils in BALF of treated animals compared to positive control (vehicle treated and smoke challenged animals).

[2] = Neutrophil, read-out: inhibition of number of neutrophils or decrease in myeloperoxidase concentration in BALF
[3] = read-out: inhibition of total cell number in BALF

| SMILES | inhibition at 50 µM [1] [%] | inhibition in vivo at 100 mg/kg (male BALB/cJ mice; [2]) [%] | inhibition in vivo at 100 mg/kg (male BALB/cJ mice; [3]) [%] | reduction of neutrophil number in BALF, statistical significance (Male BALB/c mice; dose of 30 mg/kg) | reduction of neutrophil number in BALF, statistical significance (Male BALB/c mice; dose of 100 mg/kg) | inhibition of neutrophil number in BALF (Male BALB/c mice; dose of 100 mg/kg, vs vehicle treated smoke challenged animals) |
| --- | --- | --- | --- | --- | --- | --- |
| CC[C@H]1OC(=O)[C@H](C)[C@@H](O[C@H]2C[C@@](C)(OC)[C@@H](O)[C@H](C)O2)[C@H](C)[C@@H](O[C@@H]2O[C@H](C)C[C@H](N(C)C)[C@H]2OCCCNC(=O)COC)[C@](C)(O)C[C@@H](C)CN(C)[C@H](C)[C@@H](O)[C@]1(C)O [Example 16, 2′-O-{3-[(Methoxyacetyl)amino]propyl}-9-deoxo-9a-methyl-9a-aza-9a-homoerythromycin A] | > 40 | > 50 | > 50 | statistically significantly reduced | – | – |
| CCOCC(=O)NCCCO[C@H]1[C@H](O[C@@H]2[C@@H](C)[C@H](O[C@H]3C[C@@](C)(OC)[C@@H](O)[C@H](C)O3)[C@@H](C)C(=O)O[C@H](CC)[C@@](C)(O)[C@H](O)[C@@H](C)N(C)C[C@H](C)C[C@@]2(C)O)O[C@H](C)C[C@@H]1N(C)C [Example 21, 2′-O-{3-[(Ethyloxyacetyl)amino]propyl}-9-deoxo-9a-methyl-9a-aza-9a-homoerythromycin A] | > 40 | > 50 | > 50 | statistically significantly reduced | – | – |
| CC[C@H]1OC(=O)[C@H](C)[C@@H](O[C@H]2C[C@@](C)(OC)[C@@H](O)[C@H](C)O2)[C@H](C)[C@@H](O[C@@H]2O[C@H](C)C[C@H](N(C)C)[C@H]2OCCCNC(=O)c2c(C)nn(C)c2C)[C@](C)(O)C[C@@H](C)CN(C)[C@H](C)[C@@H](O)[C@]1(C)O [Example 19, 2′-O-(3-{[(1,3,5-Trimethyl-1H-pyrazol-4-yl)carbonyl]amino}propyl)-9-deoxo-9a-methyl-9a-aza-9a-homoerythromycin A] | > 40 | > 50 | > 50 | – | – | – |
| CC[C@H]1OC(=O)[C@H](C)[C@@H](O[C@H]2C[C@@](C)(OC)[C@@H](O)[C@H](C)O2)[C@H](C)[C@@H](O[C@@H]2O[C@H](C)C[C@H](N(C)C)[C@H]2OCCCNC(=O)C2CCC2)[C@](C)(O)C[C@@H](C)CN(C)[C@H](C)[C@@H](O)[C@]1(C)O [Example 15, 2′-O-{3-[(Cyclobutylcarbonyl)amino]propyl}-9-deoxo-9a-methyl-9a-aza-9a-homoerythromycin A] | > 40 | > 30 | > 30 | – | – | – |
| CCC(=O)NCCCO[C@H]1[C@H](O[C@@H]2[C@@H](C)[C@H](O[C@H]3C[C@@](C)(OC)[C@@H](O)[C@H](C)O3)[C@@H](C)C(=O)O[C@H](CC)[C@@](C)(O)[C@H](O)[C@@H](C)N(C)C[C@H](C)C[C@@]2(C)O)O[C@H](C)C[C@@H]1N(C)C [Example 2, 2′-O-[3-(Propanoylamino)propyl]-9-deoxo-9a-methyl-9a-aza-9a-homoerythromycin A] | > 40 | – | – | – | no statistical significance | less than 10% |
| CC[C@H]1OC(=O)[C@H](C)[C@@H](O[C@H]2C[C@@](C)(OC)[C@@H](O)[C@H](C)O2)[C@H](C)[C@@H](O[C@@H]2O[C@H](C)C[C@H](N(C)C)[C@H]2OCCCNC(=O)c2cccnc2)[C@](C)(O)C[C@@H](C)CN(C)[C@H](C)[C@@H](O)[C@]1(C)O [Example 20, 2′-O-{3-[(3-Pyridinylcarbonyl)amino]propyl}-9-deoxo-9a-methyl-9a-aza-9a-homoerythromycin A] | > 40 | > 30 | > 30 | – | – | – |
| CC[C@H]1OC(=O)[C@H](C)[C@@H](O[C@H]2C[C@@](C)(OC)[C@@H](O)[C@H](C)O2)[C@H](C)[C@@H](O[C@@H]2O[C@H](C)C[C@H](N(C)C)[C@H]2OCCCNC(=O)c2ccoc2)[C@](C)(O)C[C@@H](C)CN(C)[C@H](C)[C@@H](O)[C@]1(C)O [Example 17, 2′-O-{3-[(3-Furanylcarbonyl)amino]propyl}-9-deoxo-9a-methyl-9a-aza-9a-homoerythromycin A] | > 40 | > 50 | > 50 | – | – | – |

Source: patent publication US20110281812A1, “Compounds” (priority 2009, published 2011)
